Data taken from ChEMBL document CHEMBL3862025, “Novel substituted hydrazono indolo[2,1-b]quinazoline-6,12-dione analogues as cytostatic agents: Synthesis, crystal structure, biological evaluation and molecular docking studies” (Bioorg Med Chem Lett, 2016).
≈ marks a conversion by molar mass, not a printed value.

Assays:
[1] = Cytotoxicity against human MCF7 cells assessed as inhibition of cell viability after 48 hrs by MTT assay; type: functional, cell-based; conditions: MCF7, 48 h
[2] = Cytotoxicity against human A549 cells assessed as inhibition of cell viability after 48 hrs by MTT assay; type: functional, cell-based; conditions: A549, 48 h
[3] = Cytotoxicity against human HeLa cells assessed as inhibition of cell viability after 48 hrs by MTT assay; type: functional, cell-based
[4] = tested on: Staphylococcus aureus; experiment: Antibacterial activity against Staphylococcus aureus after 24 hrs by broth dilution method; type: functional
[5] = tested on: Bacillus subtilis; experiment: Antibacterial activity against Bacillus subtilis after 24 hrs by broth dilution method; type: functional
[6] = tested on: Klebsiella pneumoniae; experiment: Antibacterial activity against Klebsiella pneumoniae after 24 hrs by broth dilution method; type: functional
[7] = tested on: Escherichia coli; experiment: Antibacterial activity against Escherichia coli after 24 hrs by broth dilution method; type: functional
[8] = tested on: Aspergillus niger; experiment: Antifungal activity against Aspergillus niger by agar streak dilution method; type: functional
[9] = Antifungal activity against Penicillium notatum by agar streak dilution method; type: functional; conditions: Penicillium chrysogenum
[10] = Cytotoxicity against HEK293 cells assessed as inhibition of cell viability after 48 hrs by MTT assay; type: toxicity, cell-based; conditions: human

| Compound | IC50 [1] | IC50 [2] | IC50 [3] | MIC [4] | MIC [5] | MIC [6] | MIC [7] | MIC [8] | MIC [9] | IC50 at 48 h [10] |
| --- | --- | --- | --- | --- | --- | --- | --- | --- | --- | --- |
| CC(O)=CC(C)=N/N=C1/c2cc(Br)ccc2-n2c1nc1ccccc1c2=O | 33 µM | 31.1 µM | 31.2 µM | 50 µg/mL (≈ 118 µM) | 50 µg/mL (≈ 118 µM) | > 100 µg/mL | 50 µg/mL (≈ 118 µM) | > 100 µg/mL | > 100 µg/mL |  |
| C/C(O)=C/C(C)=N/N=C1/c2ccccc2-n2c1nc1ccccc1c2=O | 42.1 µM | 43.9 µM | 44.8 µM | 25 µg/mL (≈ 72.6 µM) | 25 µg/mL (≈ 72.6 µM) | 12.5 µg/mL (≈ 36.3 µM) | 50 µg/mL (≈ 145 µM) | > 100 µg/mL | > 100 µg/mL |  |
| CC(=O)N1CCN(c2ccc(OCC3COC(Cn4ccnc4)(c4ccc(Cl)cc4Cl)O3)cc2)CC1 (configuration not stated) [KETOCONAZOLE] |  |  |  |  |  |  |  | 3.12 µg/mL (≈ 5.88 µM) | 3.12 µg/mL (≈ 5.88 µM) |  |
| CC(C=C(O)c1ccccc1)=N/N=C1/c2cc(Br)ccc2-n2c1nc1ccccc1c2=O | 7.14 µM | 9.18 µM | 10.6 µM | > 100 µg/mL | > 100 µg/mL | > 100 µg/mL | > 100 µg/mL | 25 µg/mL (≈ 51.5 µM) | 25 µg/mL (≈ 51.5 µM) | 46.1 µM |
| CN[C@@H]1[C@H](O[C@H]2[C@H](O[C@H]3[C@H](O)[C@@H](O)[C@H](N=C(N)N)[C@@H](O)[C@@H]3N=C(N)N)O[C@@H](C)[C@]2(O)C=O)O[C@@H](CO)[C@H](O)[C@H]1O [STREPTOMYCIN] |  |  |  | 6.25 µg/mL (≈ 10.7 µM) | 3.12 µg/mL (≈ 5.37 µM) | 1.56 µg/mL (≈ 2.69 µM) | 6.25 µg/mL (≈ 10.7 µM) |  |  |  |
| N/N=C1/c2cc(Br)ccc2-n2c1nc1ccccc1c2=O | 23.2 µM | 23.1 µM | 22.1 µM | > 100 µg/mL | 50 µg/mL (≈ 147 µM) | 25 µg/mL (≈ 73.3 µM) | > 100 µg/mL | 50 µg/mL (≈ 147 µM) | 50 µg/mL (≈ 147 µM) |  |
| CC1(C)CC(O)=C/C(=N/N=C2/c3cc(Br)ccc3-n3c2nc2ccccc2c3=O)C1 | 40 µM | 46.3 µM | 39.8 µM | > 100 µg/mL | > 100 µg/mL | > 100 µg/mL | > 100 µg/mL | 100 µg/mL (≈ 216 µM) | > 100 µg/mL |  |
| COc1ccc2c(c1)/C(=N/N=C1/C=C(O)CCC1)c1nc3ccccc3c(=O)n1-2 | 32.7 µM | 36 µM | 32.1 µM | 3.12 µg/mL (≈ 8.09 µM) | 6.25 µg/mL (≈ 16.2 µM) | 6.25 µg/mL (≈ 16.2 µM) | 12.5 µg/mL (≈ 32.3 µM) | 100 µg/mL (≈ 259 µM) | 12.5 µg/mL (≈ 32.3 µM) |  |
| CCO/C(O)=C/C(C)=N/N=C1/c2cc(OC)ccc2-n2c1nc1ccccc1c2=O | 54.5 µM | 56.2 µM | 58.2 µM | 6.25 µg/mL (≈ 15.5 µM) | 6.25 µg/mL (≈ 15.5 µM) | 3.12 µg/mL (≈ 7.73 µM) | 12.5 µg/mL (≈ 30.9 µM) | 50 µg/mL (≈ 124 µM) | 50 µg/mL (≈ 124 µM) |  |
| COc1ccc2c(c1)/C(=N/N=C(C)C=C(O)c1ccccc1)c1nc3ccccc3c(=O)n1-2 | 31.1 µM | 29.3 µM | 33.7 µM | > 100 µg/mL | > 100 µg/mL | > 100 µg/mL | > 100 µg/mL | 25 µg/mL (≈ 57.3 µM) | 50 µg/mL (≈ 115 µM) |  |
| CCO/C(O)=C/C(C)=N/N=C1/c2ccccc2-n2c1nc1ccccc1c2=O | 50.6 µM | 51.1 µM | 42.9 µM | 6.25 µg/mL (≈ 16.7 µM) | 6.25 µg/mL (≈ 16.7 µM) | 12.5 µg/mL (≈ 33.4 µM) | 12.5 µg/mL (≈ 33.4 µM) | 12.5 µg/mL (≈ 33.4 µM) | 25 µg/mL (≈ 66.8 µM) |  |
| CC1(C)CC(O)=C/C(=N/N=C2/c3ccccc3-n3c2nc2ccccc2c3=O)C1 | 68.8 µM | 66.2 µM | 59.3 µM | 50 µg/mL (≈ 130 µM) | 50 µg/mL (≈ 130 µM) | 12.5 µg/mL (≈ 32.5 µM) | 50 µg/mL (≈ 130 µM) | 100 µg/mL (≈ 260 µM) | 100 µg/mL (≈ 260 µM) |  |
| O=c1c2ccccc2nc2n1-c1ccccc1/C2=N/N=C1/C=C(O)CCC1 | 27.9 µM | 29.8 µM | 23.9 µM | 6.25 µg/mL (≈ 17.5 µM) | 3.12 µg/mL (≈ 8.77 µM) | 12.5 µg/mL (≈ 35.1 µM) | 6.25 µg/mL (≈ 17.5 µM) | 12.5 µg/mL (≈ 35.1 µM) | 25 µg/mL (≈ 70.1 µM) |  |
| O=c1c2ccccc2nc2n1-c1ccc(Br)cc1/C2=N/N=C1/C=C(O)CCC1 | 43.9 µM | 41.7 µM | 35.8 µM | 6.25 µg/mL (≈ 14.4 µM) | 3.12 µg/mL (≈ 7.18 µM) | 6.25 µg/mL (≈ 14.4 µM) | 12.5 µg/mL (≈ 28.7 µM) | 6.25 µg/mL (≈ 14.4 µM) | 6.25 µg/mL (≈ 14.4 µM) |  |
| CC(O)=CC(C)=N/N=C1/c2cc(C)cc(C)c2-n2c1nc1ccccc1c2=O | 44.5 µM | 46.6 µM | 42 µM | 12.5 µg/mL (≈ 33.6 µM) | 12.5 µg/mL (≈ 33.6 µM) | 6.25 µg/mL (≈ 16.8 µM) | 25 µg/mL (≈ 67.1 µM) | 100 µg/mL (≈ 269 µM) | 100 µg/mL (≈ 269 µM) |  |
| COc1ccc2c(c1)/C(=N/N=C1/C=C(O)c3ccccc31)c1nc3ccccc3c(=O)n1-2 | 60.9 µM | 63.5 µM | 62.3 µM | 1.56 µg/mL (≈ 3.72 µM) | 3.12 µg/mL (≈ 7.43 µM) | 12.5 µg/mL (≈ 29.7 µM) | 6.25 µg/mL (≈ 14.9 µM) | 50 µg/mL (≈ 119 µM) | 50 µg/mL (≈ 119 µM) |  |
| CCO/C(O)=C/C(C)=N/N=C1/c2cc(Br)ccc2-n2c1nc1ccccc1c2=O | 36.6 µM | 40 µM | 36.7 µM | 1.56 µg/mL (≈ 3.45 µM) | 3.12 µg/mL (≈ 6.89 µM) | 12.5 µg/mL (≈ 27.6 µM) | 6.25 µg/mL (≈ 13.8 µM) | 6.25 µg/mL (≈ 13.8 µM) | 3.12 µg/mL (≈ 6.89 µM) |  |
| N/N=C1/c2ccccc2-n2c1nc1ccccc1c2=O | 25.2 µM | 28.7 µM | 25.6 µM | 50 µg/mL (≈ 191 µM) | > 100 µg/mL | 50 µg/mL (≈ 191 µM) | > 100 µg/mL | 50 µg/mL (≈ 191 µM) | > 100 µg/mL |  |
| COc1ccc2c(c1)/C(=N/N)c1nc3ccccc3c(=O)n1-2 | 32.3 µM | 31.2 µM | 29.2 µM | > 100 µg/mL | > 100 µg/mL | > 100 µg/mL | > 100 µg/mL | > 100 µg/mL | 50 µg/mL (≈ 171 µM) |  |
| COc1ccc2c(c1)/C(=N/N=C(C)C=C(C)O)c1nc3ccccc3c(=O)n1-2 | 47.9 µM | 46.7 µM | 49.1 µM | 12.5 µg/mL (≈ 33.4 µM) | 50 µg/mL (≈ 134 µM) | 50 µg/mL (≈ 134 µM) | 50 µg/mL (≈ 134 µM) | > 100 µg/mL | 100 µg/mL (≈ 267 µM) |  |
| O=c1c2ccccc2nc2n1-c1ccc(Br)cc1/C2=N/N=C1/C=C(O)c2ccccc21 | 15.9 µM | 20.4 µM | 17 µM | 1.56 µg/mL (≈ 3.33 µM) | 1.56 µg/mL (≈ 3.33 µM) | 3.12 µg/mL (≈ 6.66 µM) | 3.12 µg/mL (≈ 6.66 µM) | 3.12 µg/mL (≈ 6.66 µM) | 6.25 µg/mL (≈ 13.3 µM) | 55.2 µM |
| COc1ccc2c(c1)/C(=N/N=C1/C=C(O)CC(C)(C)C1)c1nc3ccccc3c(=O)n1-2 | 68.7 µM | 67.8 µM | 56.9 µM | > 100 µg/mL | > 100 µg/mL | > 100 µg/mL | > 100 µg/mL | 100 µg/mL (≈ 241 µM) | > 100 µg/mL |  |
| O=c1c2ccccc2nc2n1-c1ccccc1/C2=N/N=C1/C=C(O)c2ccccc21 | 50.3 µM | 56.4 µM | 49.4 µM | 3.12 µg/mL (≈ 8 µM) | 6.25 µg/mL (≈ 16 µM) | 1.56 µg/mL (≈ 4 µM) | 12.5 µg/mL (≈ 32 µM) | 6.25 µg/mL (≈ 16 µM) | 12.5 µg/mL (≈ 32 µM) |  |
